Measured values: patent publication US8058475B2, “Substituted cyclohexylmethyl compounds” (Gruenenthal GmbH, priority 2005, dated 2011)
pKi: −log10 of the molar value. Where a name gives a salt, the structure may show the parent alone.

Key:
[1] = biological target: T1, Noradrenaline (NA) reuptake (Rattus norvegicus, UniProt Q63380); assay: Noradrenaline (NA) reuptake inhibition in rat brain synaptosomes (hypothalamus, P2 fraction); format: biochemical; conditions: read-out: NA reuptake, % inhibition [10 μM]
T1 construct: synaptosomes are freshly isolated from areas of rat brain; from tissue; host or cells: rat hypothalamus synaptosomes (P2 fraction)
Text: Noradrenaline (NA) and Serotonin (5HT) Reuptake Inhibition
In order to be able to carry out these studies in vitro, synaptosomes are freshly isolated from areas of rat brain. A so-called “P2” fraction prepared by the method of Gray and Whittaker (E. G. Gray and V. P. Whittaker (1962) J. Anat. 76, 79-88) is used in each case. For the NA uptake, these vesicular particles are isolated from the hypothalamus of male rat brains.
A detailed description of the method will be found in the literature (M. Ch. Frink, H. H. Hennies, W. Englberger, M. Haurand and B. Wilffert (1996) Arzneim.-Forsch./Drug Res. 46 (III), 11, 1029-1036).

human μ-opiate receptor = human μ-opiate receptor (Homo sapiens, UniProt P35372); assay: Affinity for the human μ-opiate receptor ([3H]-naloxone displacement, SPA, CHO-K1 membrane preparation); format: binding; conditions: for inhibition at 1 µM: read-out: μ-Opioid receptor, % inhibition [1 μM]; for pKi: read-out: μ-Opioid receptor, Ki
Sequence of human μ-opiate receptor (P35372 whole entry): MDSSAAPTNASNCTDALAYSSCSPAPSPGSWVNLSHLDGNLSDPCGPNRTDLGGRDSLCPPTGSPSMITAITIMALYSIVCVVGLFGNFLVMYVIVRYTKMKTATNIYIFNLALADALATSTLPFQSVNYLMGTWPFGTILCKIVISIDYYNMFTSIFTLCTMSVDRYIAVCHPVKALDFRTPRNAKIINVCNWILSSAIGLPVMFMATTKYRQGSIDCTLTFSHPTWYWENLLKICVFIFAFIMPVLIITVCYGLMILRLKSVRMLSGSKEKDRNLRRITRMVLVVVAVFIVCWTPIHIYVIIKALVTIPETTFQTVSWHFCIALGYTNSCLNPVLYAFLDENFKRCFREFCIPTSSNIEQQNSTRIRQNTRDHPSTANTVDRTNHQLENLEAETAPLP

T1 sequence (Q63380 1-617): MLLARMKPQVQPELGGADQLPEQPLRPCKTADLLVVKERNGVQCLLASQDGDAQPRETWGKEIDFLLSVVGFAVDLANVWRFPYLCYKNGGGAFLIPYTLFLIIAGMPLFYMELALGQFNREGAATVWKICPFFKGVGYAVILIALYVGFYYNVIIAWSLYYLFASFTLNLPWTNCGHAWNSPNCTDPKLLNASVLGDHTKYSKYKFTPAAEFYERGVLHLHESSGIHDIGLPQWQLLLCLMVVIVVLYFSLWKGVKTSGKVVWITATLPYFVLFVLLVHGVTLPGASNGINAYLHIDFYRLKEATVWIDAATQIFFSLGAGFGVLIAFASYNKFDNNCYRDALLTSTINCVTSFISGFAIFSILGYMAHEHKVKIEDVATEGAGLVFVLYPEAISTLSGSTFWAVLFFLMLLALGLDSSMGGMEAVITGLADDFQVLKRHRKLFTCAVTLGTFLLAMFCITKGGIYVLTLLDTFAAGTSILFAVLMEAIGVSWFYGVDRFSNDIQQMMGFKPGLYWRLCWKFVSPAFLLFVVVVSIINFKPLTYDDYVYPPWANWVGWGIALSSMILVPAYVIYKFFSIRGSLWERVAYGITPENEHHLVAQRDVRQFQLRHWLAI

Structure (SMILES) | inhibition at 10 µM [1] [%] | inhibition at 1 µM (human μ-opiate receptor) [%] | pKi (human μ-opiate receptor)
CN(C)C(c1ccccc1)C1CCC(O)(Cc2ccccc2)CC1 (stereo not drawn) [compound 147, 1-benzyl-4-((dimethylamino)(phenyl)methyl)cyclohexanol hydrochloride] | 12 | – | –
CCC(C(=O)NCCC1CCC(C(c2cccs2)N(C)C)CC1)c1ccccc1 (stereo not drawn) [compound 456, N-{2-[4-(dimethylamino-thiophen-2-yl-methyl)-cyclohexyl]-ethyl}-2-phenyl-butyramide] | – | 96 | 7.64
CN(C)C(c1ccccc1)C1CCC(CCNC(=O)c2cc3ccccc3s2)CC1 (stereo not drawn) [compound 457, benzo[b]thiophene-2-carboxylic acid {2-[4-(dimethylamino-phenyl-methyl)-cyclohexyl]-ethyl}-amide] | – | 91 | 7.40
CN(C)C(c1ccccc1)C1CCC(CCNC(=O)c2ccc([N+](=O)[O-])cc2)CC1 (stereo not drawn) [compound 458, N-{2-[4-(dimethylamino-phenyl-methyl)-cyclohexyl]-ethyl}-4-nitro-benzamide] | – | 93 | 7.31
CN(C)C(c1ccc(F)cc1)C1CCC(CCNC(=O)c2cccc(Br)c2)CC1 (stereo not drawn) [compound 459, 3-bromo-N-(2-{4-[dimethylamino-(4-fluoro-phenyl)-methyl]-cyclohexyl}-ethyl)-benzamide] | – | 90 | 7.51
CN(C)C(c1ccccc1)C1CCC(CCNC(=O)c2c(F)c(F)c(F)c(F)c2F)CC1 (stereo not drawn) [compound 460, N-{2-[4-(dimethylamino-phenyl-methyl)-cyclohexyl]-ethyl}-2,3,4,5,6-pentafluoro-benzamide] | – | 97 | 8.02
CN(C)C(c1ccccc1)C1CCC(CCNC(=O)c2c(F)cccc2F)CC1 (stereo not drawn) [compound 461, N-{2-[4-(dimethylamino-phenyl-methyl)-cyclohexyl]-ethyl}-2,6-difluoro-benzamide] | – | 100 | 7.77
CN(C)C(c1cccc(F)c1)C1CCC(CCNC(=O)c2c(F)cccc2F)CC1 (stereo not drawn) [compound 462, N-(2-{4-[dimethylamino-(3-fluoro-phenyl)-methyl]-cyclohexyl}-ethyl)-2,6-difluoro-benzamide] | – | 91 | 7.26
CN(C)C(c1ccccc1)C1CCC(CCNC(=O)c2csc(-c3ccccc3)n2)CC1 (stereo not drawn) [compound 463, 2-phenyl-thiazole-4-carboxylic acid {2-[4-(dimethylamino-phenyl-methyl)-cyclohexyl]-ethyl}-amide] | – | 104 | 8.07
CN(C)C(c1ccc(F)cc1)C1CCC(CCNC(=O)c2csc(-c3ccccc3)n2)CC1 (stereo not drawn) [compound 464, 2-phenyl-thiazole-4-carboxylic acid (2-{4-[dimethylamino-(4-fluoro-phenyl)-methyl]-cyclohexyl}-ethyl)-amide] | – | 92 | 7.12
CN(C)C(c1cccs1)C1CCC(CCNC(=O)c2csc3ccccc23)CC1 (stereo not drawn) [compound 465, benzo[b]thiophene-3-carboxylic acid {2-[4-(dimethylamino-thiophen-2-yl-methyl)-cyclohexyl]-ethyl}-amide] | – | 99 | 8.51
CSc1ncccc1C(=O)NCCC1CCC(C(c2ccccc2)N(C)C)CC1 (stereo not drawn) [compound 466, N-{2-[4-(dimethylamino-phenyl-methyl)-cyclohexyl]-ethyl}-2-methylsulfanyl-nicotinamide] | – | 86 | 7.39
Cc1oc(-c2ccccc2)cc1C(=O)NCCC1CCC(C(c2ccccc2)N(C)C)CC1 (stereo not drawn) [compound 467, 2-methyl-5-phenyl-furan-3-carboxylic acid {2-[4-(dimethylamino-phenyl-methyl)-cyclohexyl]-ethyl}-amide] | – | 82 | 7.21
CN(C)C(c1ccccc1)C1CCC(CCNC(=O)c2csc(-c3ccc4c(c3)CCO4)n2)CC1 (stereo not drawn) [compound 468, 2-(2,3-dihydro-benzofuran-5-yl)-thiazole-4-carboxylic acid {2-[4-(dimethylamino-phenyl-methyl)-cyclohexyl]-ethyl}-amide] | – | 83 | 6.80
Cc1onc(-c2c(Cl)cccc2Cl)c1C(=O)NCCC1CCC(C(c2cccs2)N(C)C)CC1 (stereo not drawn) [compound 469, 3-(2,6-dichloro-phenyl)-5-methyl-isoxazole-4-carboxylic acid {2-[4-(dimethylamino-thiophen-2-yl-methyl)-cyclohexyl]-ethyl}-amide] | – | 87 | 7.24
CN(C)C(c1ccccc1)C1CCC(CCNC(=O)c2ccc3snnc3c2)CC1 (stereo not drawn) [compound 472, benzo[1,2,3]thiadiazole-5-carboxylic acid {2-[4-(dimethylamino-phenyl-methyl)-cyclohexyl]-ethyl}-amide] | – | 85 | –
CN(C)C(c1ccccc1)C1CCC(CCNC(=O)c2cncc(Br)c2)CC1 (stereo not drawn) [compound 473, 5-bromo-N-{2-[4-(dimethylamino-phenyl-methyl)-cyclohexyl]-ethyl}-nicotinamide] | – | 91 | 7.74
COc1c(C(=O)NCCC2CCC(C(c3ccccc3)N(C)C)CC2)csc1Cl (stereo not drawn) [compound 474, 5-chloro-4-methoxy-thiophene-3-carboxylic acid {2-[4-(dimethylamino-phenyl-methyl)-cyclohexyl]-ethyl}-amide] | – | 100 | 8.57
COc1c(C(=O)NCCC2CCC(C(c3ccc(F)cc3)N(C)C)CC2)csc1Cl (stereo not drawn) [compound 475, 5-chloro-4-methoxy-thiophene-3-carboxylic acid (2-{4-[dimethylamino-(4-fluoro-phenyl)-methyl]-cyclohexyl}-ethyl)-amide] | – | 97 | 8.16
COc1c(C(=O)NCCC2CCC(C(CCc3ccccc3)N(C)C)CC2)csc1Cl (stereo not drawn) [compound 476, 5-chloro-4-methoxy-thiophene-3-carboxylic acid {2-[4-(1-dimethylamino-3-phenyl-propyl)-cyclohexyl]-ethyl}-amide] | – | 87 | 7.08
CN(C)C(c1ccccc1)C1CCC(CCNC(=O)c2cccc(C#N)c2)CC1 (stereo not drawn) [compound 477, 3-cyano-N-{2-[4-(dimethylamino-phenyl-methyl)-cyclohexyl]-ethyl}-benzamide] | – | 96 | 7.89
COc1ccc(C(=O)NCCC2CCC(C(c3ccccc3)N(C)C)CC2)c(OC)c1 (stereo not drawn) [compound 478, N-{2-[4-(dimethylamino-phenyl-methyl)-cyclohexyl]-ethyl}-2,4-dimethoxy-benzamide] | – | 95 | 7.57
CN(C)C(c1ccccc1)C1CCC(NC(=O)c2nc(-c3cccs3)no2)CC1 (stereo not drawn) [compound 497, 3-thiophen-2-yl-[1,2,4]oxadiazole-5-carboxylic acid [4-(dimethylamino-phenyl-methyl)-cyclohexyl]-amide] | 101 | – | –
Cc1noc(C(=O)NCCC2CCC(C(c3ccccc3)N(C)C)CC2)n1 (stereo not drawn) [compound 498, 3-methyl-[1,2,4]oxadiazole-5-carboxylic acid {2-[4-(dimethylamino-phenyl-methyl)-cyclohexyl]-ethyl}-amide] | 99 | – | –
CN(C)C(c1cccc(F)c1)C1CCC(NC(=O)c2nc(-c3ccccc3)no2)CC1 (stereo not drawn) [compound 499, 3-phenyl-[1,2,4]oxadiazole-5-carboxylic acid {4-[dimethylamino-(3-fluoro-phenyl)-methyl]-cyclohexyl}-amide] | 103 | – | –
